# Source: ChEMBL document CHEMBL1131676, “The discovery of orally available thrombin inhibitors: optimisation of the P1 pharmacophore” (Bioorg Med Chem Lett, 1999)
# How the values were obtained:
# Prothrombin = Prothrombin (Homo sapiens, UniProt P00734); assay: Binding affinity to human thrombin
# [1] = Effect on doubling of human clotting time assay expressed as Activated partial thromboplastin time value (APTT); format: functional
Compound,Ki (Prothrombin),APTT [1]
O=C([C@H](Cc1cscn1)NS(=O)(=O)c1cnccc1N[C@H](CO)Cc1ccccc1)N1CCC(CCF)CC1,280 nM,9.17 µM
O=C([C@@H](NS(=O)(=O)c1cnccc1N[C@H](CO)Cc1ccccc1)C1CCCCC1)N1CCC(CCF)CC1,11800 nM,
NCCCC[C@H](NS(=O)(=O)c1cnccc1N[C@H](CO)Cc1ccccc1)C(=O)N1CCC(CCF)CC1,1800 nM,
CNc1ccc([C@H](NS(=O)(=O)c2cnccc2N[C@H](CO)Cc2ccccc2)C(=O)N2CCC(CCF)CC2)cc1,12 nM,4.08 µM
C[C@H](NS(=O)(=O)c1cnccc1N[C@H](CO)Cc1ccccc1)C(=O)N1CCC(CCF)CC1,49900 nM,
CCNc1ccc(C[C@H](NS(=O)(=O)c2cnccc2N[C@H](CO)Cc2ccccc2)C(=O)N2CCC(CCF)CC2)cc1,575 nM,17.4 µM
CC(C)[C@H](NS(=O)(=O)c1cnccc1N[C@H](CO)Cc1ccccc1)C(=O)N1CCC(CCF)CC1,6510 nM,
O=C([C@H](Cc1ccc2c(c1)OCO2)NS(=O)(=O)c1cnccc1N[C@H](CO)Cc1ccccc1)N1CCC(CCF)CC1,43 nM,6.39 µM
COc1ccc(C[C@H](NS(=O)(=O)c2cnccc2N[C@H](CO)Cc2ccccc2)C(=O)N2CCC(CCF)CC2)cc1,36 nM,8.013 µM
O=C([C@H](Cc1ccc2ccccc2c1)NS(=O)(=O)c1cnccc1N[C@H](CO)Cc1ccccc1)N1CCC(CCF)CC1,69 nM,26 µM
O=C([C@H](Cc1cccnc1)NS(=O)(=O)c1cnccc1N[C@H](CO)Cc1ccccc1)N1CCC(CCF)CC1,1610 nM,20.33 µM
N=C(N)NCC[C@H](NS(=O)(=O)c1cnccc1N[C@H](CO)Cc1ccccc1)C(=O)N1CCC(CCF)CC1,16 nM,0.75 µM
O=C([C@H](Cc1ccccn1)NS(=O)(=O)c1cnccc1N[C@H](CO)Cc1ccccc1)N1CCC(CCF)CC1,81 nM,3.87 µM

# Further compounds by falling Ki (Prothrombin), results first:
Ki (Prothrombin),Compound,APTT [1]
11900 nM,CC(C)C[C@H](NS(=O)(=O)c1cnccc1N[C@H](CO)Cc1ccccc1)C(=O)N1CCC(CCF)CC1,
1540 nM,O=C([C@@H](NS(=O)(=O)c1cnccc1N[C@H](CO)Cc1ccccc1)c1ccncc1)N1CCC(CCF)CC1,
100 nM,O=C([C@H](Cc1ccccc1)NS(=O)(=O)c1cnccc1N[C@H](CO)Cc1ccccc1)N1CCC(CCF)CC1,11 µM
82 nM,O=C([C@H](Cc1ccc(O)c(O)c1)NS(=O)(=O)c1cnccc1N[C@H](CO)Cc1ccccc1)N1CCC(CCF)CC1,6.17 µM
41 nM,O=C([C@H](Cc1ccc(O)cc1)NS(=O)(=O)c1cnccc1N[C@H](CO)Cc1ccccc1)N1CCC(CCF)CC1,1.91 µM
26 nM,Nc1cc(C[C@H](NS(=O)(=O)c2cnccc2N[C@H](CO)Cc2ccccc2)C(=O)N2CCC(CCF)CC2)ccc1O,1.53 µM
